Source: ChEMBL document CHEMBL3885861, “Open TG-GATES”

Organism: Rattus norvegicus
Test: Open TG-GATES - Regimen: Single
Format: toxicity, organism-based, Sprague-Dawley
Design: regimen Single, gender Male, age 6 weeks
Conditions: in vivo, po, 150 mg/kg, route gavage, dose level High; for APTT / Bas / Eos / Fbg / Hb / Ht / Lym / MCH / MCHC / MCV / Mono / Neu / PT / Plat / RBC / Ret / WBC: tissue Blood; for KIDNEY_L / KIDNEY_R / KIDNEY_TOTAL: tissue Kidney; for LIVER: tissue Liver; for A/G / ALP / ALT / AST / BUN / CRE / Ca / Cl / DBIL / GLC / IP / K / LDH / Na / PL / RALB / TBIL / TC / TG / TP / gamma-GTP: tissue Plasma

Nc1nc(N)c2nc(-c3ccccc3)c(N)nc2n1
TERMINAL_BW (3 h): 213.5 g | APTT (3 h): 17.4 s | Bas (3 h): 0.4% | Eos (3 h): 0.8% | Fbg (3 h): 303.6 mg/dL | Hb (3 h): 14.2 g/dL | Ht (3 h): 42.4% | Lym (3 h): 77.2% | MCH (3 h): 21.3 pg | MCHC (3 h): 33.4% | MCV (3 h): 63.7 fL | Mono (3 h): 3.2% | Neu (3 h): 17.6% | PT (3 h): 14 s | Plat (3 h): 128.5 x10_4/uL | RBC (3 h): 666 x10_4/ul | Ret (3 h): 7.5% | WBC (3 h): 118.9 x10_2/uL | KIDNEY_L (3 h): 1 g | KIDNEY_R (3 h): 1 g | KIDNEY_TOTAL (3 h): 2 g | LIVER (3 h): 9.5 g | A/G (3 h): 1 | ALP (3 h): 1286.4 IU/L | ALT (3 h): 36.6 IU/L | AST (3 h): 71 IU/L | BUN (3 h): 12.8 mg/dL | CRE (3 h): 0.2 mg/dL | Ca (3 h): 10.8 mg/dL | Cl (3 h): 105.8 meq/L | DBIL (3 h): 0.01 mg/dL | GLC (3 h): 166.4 mg/dL | IP (3 h): 8.6 mg/dL | K (3 h): 5.2 meq/L | LDH (3 h): 56.2 IU/L | Na (3 h): 141 meq/L | PL (3 h): 142.6 mg/dL | RALB (3 h): 2.7 g/dL | TBIL (3 h): 0.06 mg/dL | TC (3 h): 77.6 mg/dL | TG (3 h): 67.2 mg/dL | TP (3 h): 5.5 g/dL | gamma-GTP (3 h): 1 IU/L | TERMINAL_BW (6 h): 206.9 g | APTT (6 h): 17.1 s | Bas (6 h): 0% | Eos (6 h): 1% | Fbg (6 h): 349 mg/dL | Hb (6 h): 14.4 g/dL | Ht (6 h): 43.7% | Lym (6 h): 74.4% | MCH (6 h): 20.9 pg | MCHC (6 h): 33% | MCV (6 h): 63.3 fL | Mono (6 h): 2.8% | Neu (6 h): 20.8% | PT (6 h): 13.9 s | Plat (6 h): 123.5 x10_4/uL | RBC (6 h): 690.6 x10_4/ul | Ret (6 h): 7.5% | WBC (6 h): 94.4 x10_2/uL | KIDNEY_L (6 h): 1 g | KIDNEY_R (6 h): 1 g | KIDNEY_TOTAL (6 h): 1.9 g | LIVER (6 h): 9.1 g | A/G (6 h): 1 | ALP (6 h): 1417.8 IU/L | ALT (6 h): 37.8 IU/L | AST (6 h): 76.6 IU/L | BUN (6 h): 11.8 mg/dL | CRE (6 h): 0.2 mg/dL | Ca (6 h): 10.9 mg/dL | Cl (6 h): 105.8 meq/L | DBIL (6 h): 0.01 mg/dL | GLC (6 h): 169.6 mg/dL | IP (6 h): 9.4 mg/dL | K (6 h): 5.3 meq/L | LDH (6 h): 65.2 IU/L | Na (6 h): 140 meq/L | PL (6 h): 150.6 mg/dL | RALB (6 h): 2.8 g/dL | TBIL (6 h): 0.058 mg/dL | TC (6 h): 80.8 mg/dL | TG (6 h): 55.6 mg/dL | TP (6 h): 5.8 g/dL | gamma-GTP (6 h): 1 IU/L | TERMINAL_BW (9 h): 205.8 g | APTT (9 h): 17.3 s | Bas (9 h): 0.2% | Eos (9 h): 1% | Fbg (9 h): 347 mg/dL | Hb (9 h): 14.4 g/dL | Ht (9 h): 43.5% | Lym (9 h): 71.4% | MCH (9 h): 20.9 pg | MCHC (9 h): 33.1% | MCV (9 h): 63.1 fL | Mono (9 h): 2.2% | Neu (9 h): 25% | PT (9 h): 13.9 s | Plat (9 h): 118.6 x10_4/uL | RBC (9 h): 689.4 x10_4/ul | Ret (9 h): 7.6% | WBC (9 h): 77.8 x10_2/uL | KIDNEY_L (9 h): 1 g | KIDNEY_R (9 h): 1 g | KIDNEY_TOTAL (9 h): 2 g | LIVER (9 h): 8.3 g | A/G (9 h): 1 | ALP (9 h): 1443.6 IU/L | ALT (9 h): 35.2 IU/L | AST (9 h): 73.4 IU/L | BUN (9 h): 12.6 mg/dL | CRE (9 h): 0.2 mg/dL | Ca (9 h): 11.1 mg/dL | Cl (9 h): 105.4 meq/L | DBIL (9 h): 0.01 mg/dL | GLC (9 h): 165.2 mg/dL | IP (9 h): 10.6 mg/dL | K (9 h): 5 meq/L | LDH (9 h): 57.8 IU/L | Na (9 h): 141.4 meq/L | PL (9 h): 139 mg/dL | RALB (9 h): 2.9 g/dL | TBIL (9 h): 0.066 mg/dL | TC (9 h): 79.4 mg/dL | TG (9 h): 30.2 mg/dL | TP (9 h): 5.9 g/dL | gamma-GTP (9 h): 1.2 IU/L | TERMINAL_BW (24 h): 222.9 g | APTT (24 h): 17.6 s | Bas (24 h): 0.2% | Eos (24 h): 0.8% | Fbg (24 h): 366.6 mg/dL | Hb (24 h): 14.4 g/dL | Ht (24 h): 42.7% | Lym (24 h): 80.8% | MCH (24 h): 21.7 pg | MCHC (24 h): 33.7% | MCV (24 h): 64.4 fL | Mono (24 h): 2.4% | Neu (24 h): 15.4% | PT (24 h): 13.7 s | Plat (24 h): 121.5 x10_4/uL | RBC (24 h): 662.8 x10_4/ul | Ret (24 h): 6.2% | WBC (24 h): 84.4 x10_2/uL | KIDNEY_L (24 h): 1 g | KIDNEY_R (24 h): 1 g | KIDNEY_TOTAL (24 h): 2 g | LIVER (24 h): 10.2 g | A/G (24 h): 0.9 | ALP (24 h): 1697.4 IU/L | ALT (24 h): 43 IU/L | AST (24 h): 67.4 IU/L | BUN (24 h): 18 mg/dL | CRE (24 h): 0.2 mg/dL | Ca (24 h): 11.2 mg/dL | Cl (24 h): 106.2 meq/L | DBIL (24 h): 0.01 mg/dL | GLC (24 h): 175.4 mg/dL | IP (24 h): 8.4 mg/dL | K (24 h): 4.4 meq/L | LDH (24 h): 66.6 IU/L | Na (24 h): 143.8 meq/L | PL (24 h): 158 mg/dL | RALB (24 h): 2.7 g/dL | TBIL (24 h): 0.038 mg/dL | TC (24 h): 85.2 mg/dL | TG (24 h): 96.6 mg/dL | TP (24 h): 5.6 g/dL | gamma-GTP (24 h): 1 IU/L
